The subject of assay [1] is Staphylococcus epidermidis. The experiment in a line: Antibacterial activity against Staphylococcus epidermidis ATCC 12228 incubated for 18 hrs by serial two-fold dilution method. Type of assay: functional.
Assay [2] relates to Staphylococcus epidermidis. The experiment in a line: Bactericidal activity against Staphylococcus epidermidis ATCC 12228 incubated for 18 to 24 hrs. Type of assay: functional. Particulars: time 18-24 hrs.
Assay [3] concerns Staphylococcus aureus. The assay can be described thus: Bactericidal activity against Staphylococcus aureus ATCC 29213 incubated for 18 to 24 hrs. Type of assay: functional. Particulars: time 18-24 hrs.
The subject of assay [4] is Staphylococcus aureus. The assay can be described thus: Bactericidal activity against methicillin resistant Staphylococcus aureus ATCC 33592 incubated for 18 to 24 hrs. Type of assay: functional. The settings on record: time 18-24 hrs.
For assay [5], the system named is Staphylococcus aureus. The assay can be described thus: Bactericidal activity against methicillin resistant Staphylococcus aureus ATCC 43300 incubated for 18 to 24 hrs. Type of assay: functional. The settings on record: time 18-24 hrs.
Assay [6] deals with Staphylococcus aureus. The experiment in a line: Bactericidal activity against methicillin resistant Staphylococcus aureus ATCC 33592 at 2.5 times MIC by time-kill kinetics assay. It is filed as functional, organism-based.
Assay [7] concerns Staphylococcus aureus. The assay can be described thus: Bactericidal activity against methicillin resistant Staphylococcus aureus ATCC 33592 at 2.5 times MIC measured after 12 hrs by time-kill kinetics assay. It is filed as functional, organism-based.
For assay [8], the system named is Staphylococcus epidermidis. The experiment in a line: Drug resistance development in Staphylococcus epidermidis ATCC 12228 assessed as increase in MIC value measured after 8 passages by broth microdilution method. It is filed as functional.
The subject of assay [9] is Staphylococcus aureus. The assay can be described thus: Antibacterial activity against methicillin resistant Staphylococcus aureus ATCC 43300 infected in ICR mouse systemic infection model at 2.5 mg/kg, ip pretreated with bacteria for 30 mins followed by compound addition and measured for 7 days. It is filed as functional. Particulars: time 7 day.
Assay [10] deals with Staphylococcus aureus. The experiment in a line: Antibacterial activity against Staphylococcus aureus ATCC 29213 incubated for 18 hrs by serial two-fold dilution method. Type of assay: functional.
Assay [11] concerns Staphylococcus aureus. The assay can be described thus: Potency index, ratio of griseofamine A MIC to test compound MIC for antibacterial activity against Staphylococcus aureus ATCC 29213. It is filed as functional.
Assay [12] relates to Staphylococcus aureus. The experiment in a line: Potency index, ratio of vancomycin MIC to test compound MIC for antibacterial activity against Staphylococcus aureus ATCC 29213. Type of assay: functional.

≈ marks a conversion by molar mass, not a printed value. Calls of active or inactive are those of the source. No cut-off for these calls is given here.

Broadly, the MIC is the lowest concentration that inhibits growth of the organism. The MBC is the lowest tested concentration that kills the bacteria rather than only halting them. A low value points to greater bactericidal potency. For `CN[C@H](CC(C)C)C(=O)N[C@H]1C(=O)N[C@@H](CC(N)=O)C(=O)N[C@H]2C(=O)N[C@H]3C(=O)N[C@H](C(=O)N[C@H](C(=O)O)c4cc(O)cc(O)c4-c4cc3ccc4O)[C@H](O)c3ccc(c(Cl)c3)Oc3cc2cc(c3O[C@@H]2O[C@H](CO)[C@@H](O)[C@H](O)[C@H]2O[C@H]2C[C@](C)(N)[C@H](O)[C@H](C)O2)Oc2ccc(cc2Cl)[C@H]1O` [VANCOMYCIN], the MIC in assay [1] was 0.5 µg/mL (≈ 0.345 µM); in [8] it was 0.5 µg/mL. In addition, the MBC in assay [2] turned out to be 0.25 µg/mL (≈ 0.173 µM); against Staphylococcus aureus [3], 1 µg/mL (≈ 0.69 µM); in the assay on Staphylococcus aureus [4], 1 µg/mL (≈ 0.69 µM); against Staphylococcus aureus [5] it was 1 µg/mL (≈ 0.69 µM). The result in the assay with Staphylococcus aureus [6] was Active. Besides, the result in the assay on Staphylococcus aureus [7] was inactive. Besides, the Activity in the assay with Staphylococcus aureus [9] was determined as 62.5%.

In the case of `C/C(O)=C1\C(=O)[C@@H]2Cc3c([nH]c4ccccc34)[C@@H](c3ccc(-c4ccccc4)cc3)N2C1=O`, 0.125 µg/mL (≈ 0.288 µM) was the least that counted as inhibitory with Staphylococcus aureus [10] (MIC). For the same molecule, the Ratio stood at 64 with Staphylococcus aureus [11] and 4 in the assay on Staphylococcus aureus [12].

(Values after ChEMBL document CHEMBL5608208, “Design, synthesis of griseofamine A derivatives and development of potent antibacterial agents against MRSA” (Eur J Med Chem, 2024).)
